In the assay the target is NLRP3 (Homo sapiens, UniProt Q96P20). In kind it is cell-based.
Sequence of NLRP3 (Q96P20 whole entry): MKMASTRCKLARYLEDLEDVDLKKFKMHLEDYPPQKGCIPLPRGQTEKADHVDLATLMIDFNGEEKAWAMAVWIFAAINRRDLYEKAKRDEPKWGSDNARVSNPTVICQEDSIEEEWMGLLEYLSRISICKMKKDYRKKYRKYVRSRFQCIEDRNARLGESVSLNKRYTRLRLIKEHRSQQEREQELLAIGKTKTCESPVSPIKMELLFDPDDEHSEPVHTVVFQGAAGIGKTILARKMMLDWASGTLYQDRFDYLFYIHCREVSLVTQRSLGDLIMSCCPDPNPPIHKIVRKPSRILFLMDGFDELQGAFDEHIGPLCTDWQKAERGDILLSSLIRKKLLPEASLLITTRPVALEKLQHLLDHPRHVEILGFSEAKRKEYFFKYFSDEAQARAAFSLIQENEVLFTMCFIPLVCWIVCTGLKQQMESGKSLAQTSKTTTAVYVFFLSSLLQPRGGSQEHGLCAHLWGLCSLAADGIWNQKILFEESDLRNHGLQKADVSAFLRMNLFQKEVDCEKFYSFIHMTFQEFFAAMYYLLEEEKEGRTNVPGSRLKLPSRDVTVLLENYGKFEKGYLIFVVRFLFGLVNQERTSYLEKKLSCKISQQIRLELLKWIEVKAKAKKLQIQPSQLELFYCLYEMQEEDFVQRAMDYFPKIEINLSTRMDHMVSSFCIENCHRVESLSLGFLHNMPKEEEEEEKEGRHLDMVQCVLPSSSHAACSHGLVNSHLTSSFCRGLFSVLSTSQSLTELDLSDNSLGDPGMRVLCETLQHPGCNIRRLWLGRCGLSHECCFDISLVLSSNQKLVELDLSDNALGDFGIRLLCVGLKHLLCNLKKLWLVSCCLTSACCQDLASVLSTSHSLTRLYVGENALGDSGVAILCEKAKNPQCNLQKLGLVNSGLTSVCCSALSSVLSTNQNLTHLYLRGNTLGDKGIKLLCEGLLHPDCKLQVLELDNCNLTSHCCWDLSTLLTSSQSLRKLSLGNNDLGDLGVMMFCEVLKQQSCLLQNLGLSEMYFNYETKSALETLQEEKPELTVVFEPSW

In the case of `Cn1cc(N(C[C@@H]2CCCO2)S(=O)(=O)NC(=O)Nc2c3c(cc4c2CCC4)CCC3)cn1` [NT-0249, [(1,2,3,5,6,7-hexahydro-s-indacen-4-yl)carbamoyl][(1-methyl-1H-pyrazol-4-yl)({[(2S)-oxolan-2-yl]methyl})sulfamoyl]azanide], the IC50 was determined as 11 nM.

(Values after publication PMC11091978 (ACS Pharmacology & Translational Science, 2024).)
